Data taken from ChEMBL document CHEMBL1126847, “Deoxygenated inositol 1,4,5-trisphosphate analogues and their interaction with metabolic enzymes. (1R,2R,4R)-cyclohexane-1,2,4-tris(methylenesulfonate): a potent selective 5-phosphatase inhibitor” (J Med Chem, 1993).

Key:
[1] = Tested for the ability to displace [3H]1,4,5-IP3 from the 1,4,5-IP3 specific binding site of membranes from the bovine adrenal cortices
[2] = Tested for [Ca2+] release in 45 [Ca2+] -preloaded SH-SY5Y cells using saponin; type: functional, cell-based; settings: Homo sapiens
[3] = target: T1, Inositol polyphosphate-5-phosphatase A (Homo sapiens, UniProt Q14642); assay: Tested for inhibition of 5-phosphatase isolated from human erythrocyte membrane (R metabolically resistant)
T1 sequence (Q14642 whole entry): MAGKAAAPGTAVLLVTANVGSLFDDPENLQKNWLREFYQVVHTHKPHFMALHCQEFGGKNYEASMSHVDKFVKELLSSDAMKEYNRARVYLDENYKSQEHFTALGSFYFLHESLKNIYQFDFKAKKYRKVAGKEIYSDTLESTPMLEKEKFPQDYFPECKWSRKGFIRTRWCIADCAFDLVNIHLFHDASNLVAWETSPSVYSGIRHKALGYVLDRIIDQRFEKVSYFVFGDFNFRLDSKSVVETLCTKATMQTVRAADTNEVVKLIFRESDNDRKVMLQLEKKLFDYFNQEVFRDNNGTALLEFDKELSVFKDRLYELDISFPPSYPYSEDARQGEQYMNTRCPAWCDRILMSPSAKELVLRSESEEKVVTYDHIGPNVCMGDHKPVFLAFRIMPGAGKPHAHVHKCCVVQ

[4] = (§1) Inhibition of Inositol 1,4,5-trisphosphate 3-kinase from rat brain homogenate (R metabolically resistant); type: tissue-based
[5] = Inhibition of Inositol 1,4,5-trisphosphate 3-kinase from rat brain homogenate (S substrate)
[6] = target: T1, Inositol polyphosphate-5-phosphatase A; assay: Tested for inhibition of 5-phosphatase isolated from human erythrocyte membrane (S substrate)
[7] = target: T1, Inositol polyphosphate-5-phosphatase A; assay: Tested for inhibition of 5-phosphatase isolated from human erythrocyte membrane
[8] = as §1
[9] = Inhibition of Inositol 1,4,5-trisphosphate 3-kinase from rat brain homogenate (r-metabolically resistant)
[10] = Inhibition of Inositol 1,4,5-trisphosphate 3-kinase from rat brain homogenate (r metabolically resistant)

Ki [1] [µM]	EC50 [2] [µM]	Ki [3] [µM]	Ki [4] [µM]	Ki [5] [µM]	Ki [6] [µM]	Ki [7] [µM]	Ki [8] [µM]	Ki [9] [µM]	Ki [10] [µM]	Structure (SMILES)
> 100	> 100	535	> 600	–	–	–	–	–	–	O=P(O)(O)CC1CCC(CP(=O)(O)O)[C@H](CP(=O)(O)O)C1 (stereo partly specified)
0.0022	0.0521	–	–	0.85	15	–	–	–	–	O=P(O)(O)O[C@@H]1[C@H](O)[C@H](O)[C@@H](OP(=O)(O)O)[C@H](OP(=O)(O)O)[C@H]1O [INS(1,4,5)P3]
> 100	> 100	–	> 600	–	–	3.9	–	–	–	O=S(=O)(O)CC1CC[C@@H](CS(=O)(=O)O)C[C@H]1CS(=O)(=O)O (stereo partly specified)
> 100	> 100	> 1000	–	–	–	–	> 600	–	–	O=S(=O)(O)CC1CC[C@H](CS(=O)(=O)O)C[C@H]1CS(=O)(=O)O (stereo partly specified)
> 100	> 100	144	> 600	–	–	–	–	–	–	O=P(O)(O)OCC1CCC(COP(=O)(O)O)[C@H](COP(=O)(O)O)C1 (stereo partly specified)
3.95	> 10	–	–	–	81.4	–	–	36	–	O=P(O)(O)OC1CCC(OP(=O)(O)O)[C@H](OP(=O)(O)O)C1 (stereo partly specified)
> 100	> 100	148	> 200	–	–	–	–	–	–	O=P(O)(O)Cc1ccc(CP(=O)(O)O)c(CP(=O)(O)O)c1
0.0396	0.186	–	–	–	16.5	–	–	–	19	O=P(O)(O)OC1CCC(OP(=O)(O)O)[C@H](OP(=O)(O)O)[C@@H]1O (stereo partly specified)
0.0234	0.156	–	–	–	11.5	–	–	–	25	O=P(O)(O)OC1[C@H](O)CC(OP(=O)(O)O)[C@H](OP(=O)(O)O)[C@@H]1O (stereo partly specified)
